# From patent publication EP1153612A1, “ANTICANCER AGENT POTENTIATORS” (Tsuruo, Takashi, priority 1999, dated 2000)
# System: topoisomerase IIα
# Test: Amount of expression of topoisomerase IIα in whole cell extract by western blotting
# Format: cell-based, human
# Settings: glucose starvation condition 14 hours; PSI, MG115, MG132 5 µM; lactacystin 10 µM; E64, ZLLal 50 µM; FIG. 5(a)-(c)
# Description: Topoisomerase II inhibiting anticancer drug stabilizes a complex (cleavable complex) consisting of the DNA and topoisomerase IIα occurring in a catalytic reaction process of topoisomerase IIα to cause DNA damage. Therefore, cell-killing effect of the topoisomerase II-inhibiting anticancer drug depends on the amount of intracellular expression of topoisomerase IIα essential for formation of the cleavable complex. Then, the amount of expression of topoisomerase IIα in the cultured cancer cell under the glucose starvation and hypoxia environment that are found in the solid cancer and the effect of the proteasome inhibiting agent to the amount of expression were examined.
# The culture condition of cells is same as that described in Example 1 including the M phase synchronous culture method and culture under the glucose starvation condition. Culture under hypoxia condition, that is found in the solid cancer, similar to glucose starvation was carried out using the culture medium (that prepared by adding 5% FBS to RPMI1640 culture medium) under the ordinary condition in a Gaspack 100 anaerobic system (Becton Dickinson made). Culture under the glucose starvation condition and hypoxia condition was carried out for 14 hours .
# With the purpose to prepare a whole cell extract solution, cells culture under the above described condition were washed with an ice-cooled PBS twice and then, cells were removed from the culture dish by using a cell scraper (Sumitomo Bakelite made) for collection. Cells collected were precipitated by centrifugation and then, dissolved in an SDS sample buffer to collect as the extract solution from all cells. For reference, the composition of the SDS sample buffer was 10% v/v, glycerol, 5% 2-mercaptoethanol, 2% SDS (sodium lauryl sulfate), and 62.5 mM tris-hydrochloric acid (pH 6.8).
# The amount of topoisomerase IIα in the extract solution from all cells was measured by the western blotting method. The extract solution from all cells containing a total protein quantity of 30 µg was put on an SDS polyacrylamide gel (4-20 Multigel: Daiichi Pure Chemicals K.K. made) and subjected to electrophoresis in an electrophoresis buffer (25 mM tris, 192 mM glycine, and 0.1% SDS) in a 40 mA constant current for 1 hour. Subsequently, blotting was carried out in 4°C blotting buffer (25 mM tris, 192 mM glycine, and 20% methanol) in a 50 V constant voltage for 12 hours to transfer a protein separated in the SDS polyacrylamide gel to a nitrocellulose membrane. This nitrocellulose membrane was soaked in a blocking buffer (0.1% Tween 20, 4% skim milk-added PBS) for 1 hour to carry out blocking. The nitrocellulose membrane blocked was soaked in a solution, that was prepared by adding anti-topoisomerase IIα antibody (Cambridge Research Biochemicals Corp. made) of the final concentration 1 µg/ml as the primary antibody to the blocking buffer solution, for 1 hour. The nitrocellulose membrane was washed with the blocking buffer three times (5 minutes once), and then, soaked in the solution, in which a 1/1000 volume of an antimouse antibody (Amersham Pharmacia Biotech made) labeled with horse radish peroxidase as a secondary antibody had been added to the blocking buffer, for 1 hour. The nitrocellulose membrane was washed with the blocking buffer three times (5 minutes once), and then, washed with the PBS, to which 0.1% Tween 20 was added, three times (5 minutes once). The nitrocellulose membrane after completion of antibody reaction and washing was treated with the ECL reagent (Amersham Pharmacia Biotech made) after a handling manual and a topoisomerase IIα-specific signal was detected on an X-OMAT™AR film (Kodakmade). For reference, steps after blotting was carried out in a room temperature. […]
# The cell culture condition for both M phase-synchronized culture method and culture under the glucose starvation condition was as described in Example 1. […]
compound,measurement,value
CC(=O)N[C@@H](CSC(=O)[C@]1([C@@H](O)C(C)C)NC(=O)[C@H](C)[C@@H]1O)C(=O)O [lactacystin],expressed amount of topoisomerase IIα,similarly inhibits drop of expression of topoisomerase IIα
